EP3352763B1 (priority 2015, dated 2017)

How the values were obtained:
[1] = system: Influenzavirus A/Regensburg/D6/2009/H1N1; assay: Screening of antiviral effect of test substances (Fig. 1); format: cell-based; details: for antivirale Aktivität: Fig. 1, result in words
in vitro [2] = details: dog, mdck
in vitro [3] = details: monkey, vero cells
[4] = system: A/Regensburg/D6/2009/H1N1; format: cell-based, Influenzaviren; details: TC50/EC50, A/Regensburg/D6/2009/H1N1
[5] = system: Influenza-Viren vom Stamm A/Regensburg/D6/2009/H1N1; format: cell-based
[6] = system: A/Mississippi/3/2001/H1N1; format: cell-based, Influenzaviren; details: TC50/EC50, A/Mississippi/3/2001/H1N1
Hantaviren = format: cell-based
A/Victoria/3/75/H3N2 = format: cell-based, Influenzaviren

SMILES	antivirale Aktivität [1]	CC50 (in vitro [2])	CC50 (in vitro [3])	Reduktion der Viruslast ([1]; Fig. 1, screening of substances)	Selektivitätsindex (S.I.) [4]	antivirale Wirkung (Reduktion der Viruslast) [5]	antiviraler Effekt [5]	Reduktion der Viruslast ([5]; pre-incubation of the viruses with Tilirosid)	Selektivitätsindex (S.I.) [6]	Wirkung gegen Hantaviren (Hantaviren)	TC50 (A549-Zellen)	Selektivitätsindex (S.I.) (A/Victoria/3/75/H3N2)
O=C(O)c1cc(O)c(O)c(O)c1 [Gallussäure, reference compound]	antivirale Aktivität											
O=C(/C=C/c1ccc(O)cc1)OC[C@H]1O[C@@H](Oc2c(-c3ccc(O)cc3)oc3cc(O)cc(O)c3c2=O)[C@H](O)[C@@H](O)[C@@H]1O [Tilirosid, Kaempferol-3-(6"-trans-p-coumaroyl)glucosid]	höchste antivirale Aktivität	932 µM	126 µM	> 90%	433	> 90%	keinen antiviralen Effekt	keiner Reduktion der Viruslast	2.906	nicht gegen Hantaviren wirkt	1.862 µM	134
